Measurements taken from the NIST ThermoML archive (doi:10.1021/je060271a).
Several values for one entry are separate records, joined by “and”; a condition that tells them apart may be missing. Identical values can stand only once.

Details: Liquid, Vibrating tube method

CCCCC(=O)OCC(COC(=O)CCCC)(COC(=O)CCCC)COC(=O)CCCC [pentaerythritol tetrapentanoate]
Details	mass density
343.15 K, 33864 kPa	1002.5 kg/m3
343.15 K, 33916 kPa	1002.5 kg/m3
343.15 K, 33961 kPa	1002.5 kg/m3
343.15 K, 34007 kPa	1002.5 kg/m3
343.15 K, 34062 kPa	1002.6 kg/m3
343.15 K, 34111 kPa	1002.5 kg/m3
343.15 K, 34161 kPa	1002.6 kg/m3
343.15 K, 34218 kPa	1002.7 kg/m3
343.15 K, 34251 kPa	1002.6 kg/m3
343.15 K, 34275 kPa	1002.8 kg/m3
343.15 K, 34304 kPa	1002.7 kg/m3
343.15 K, 34328 kPa	1002.8 kg/m3
343.15 K, 34353 kPa	1002.7 kg/m3
343.15 K, 34384 kPa	1002.7 kg/m3
343.15 K, 34410 kPa	1002.8 kg/m3
343.15 K, 34438 kPa	1002.7 kg/m3
343.15 K, 34472 kPa	1002.8 kg/m3
343.15 K, 34497 kPa	1002.9 kg/m3
343.15 K, 34503 kPa	1002.9 kg/m3
343.15 K, 34504 kPa	1002.8 kg/m3
343.15 K, 34505 kPa	1002.9 kg/m3
343.15 K, 34506 kPa	1002.8 kg/m3
343.15 K, 34508 kPa	1002.8 kg/m3
343.15 K, 34509 kPa	1002.8 kg/m3
343.15 K, 34510 kPa	1002.9 kg/m3 and 1002.8 kg/m3
343.15 K, 34512 kPa	1002.8 kg/m3
343.15 K, 34514 kPa	1002.8 kg/m3
343.16 K, 412.1 kPa	978.6 kg/m3
343.16 K, 441.3 kPa	978.8 kg/m3
343.16 K, 470.3 kPa	978.8 kg/m3
343.16 K, 495.2 kPa	978.9 kg/m3
343.16 K, 522.1 kPa	978.8 kg/m3
343.16 K, 556.2 kPa	979 kg/m3
343.16 K, 586.3 kPa	978.8 kg/m3
343.16 K, 617.4 kPa	979 kg/m3
343.16 K, 654 kPa	979 kg/m3
343.16 K, 685.5 kPa	979 kg/m3
343.16 K, 717.1 kPa	979 kg/m3
343.16 K, 781.4 kPa	979 kg/m3
343.16 K, 807.8 kPa	979.1 kg/m3
343.16 K, 835.6 kPa	979.2 kg/m3
343.16 K, 864.6 kPa	979.2 kg/m3
343.16 K, 901.1 kPa	979.2 kg/m3
343.16 K, 933.9 kPa	979.2 kg/m3
343.16 K, 969.2 kPa	979.2 kg/m3
343.16 K, 1013.1 kPa	979.1 kg/m3
343.16 K, 1049.6 kPa	979.2 kg/m3
343.16 K, 1077.9 kPa	979.4 kg/m3
343.16 K, 1107.4 kPa	979.3 kg/m3
343.16 K, 1133.1 kPa	979.3 kg/m3
343.16 K, 1159.9 kPa	979.4 kg/m3
343.16 K, 1187.6 kPa	979.4 kg/m3
343.16 K, 1223.2 kPa	979.4 kg/m3
343.16 K, 1254.5 kPa	979.4 kg/m3
343.16 K, 1286.1 kPa	979.4 kg/m3
343.16 K, 1325.9 kPa	979.4 kg/m3
343.16 K, 1361.3 kPa	979.5 kg/m3
343.16 K, 1398.1 kPa	979.6 kg/m3
343.16 K, 1437 kPa	979.8 kg/m3
343.16 K, 1485.1 kPa	979.6 kg/m3
343.16 K, 1528.1 kPa	979.7 kg/m3
343.16 K, 1574.3 kPa	979.7 kg/m3
343.16 K, 1633.5 kPa	979.6 kg/m3
343.16 K, 2223.1 kPa	980.2 kg/m3
343.16 K, 2283.6 kPa	980.2 kg/m3
343.16 K, 2321.1 kPa	980.2 kg/m3
343.16 K, 2385.5 kPa	980.4 kg/m3
343.16 K, 2425 kPa	980.4 kg/m3
343.16 K, 2459.5 kPa	980.4 kg/m3
343.16 K, 2536.9 kPa	980.4 kg/m3
343.16 K, 2611.6 kPa	980.6 kg/m3
343.16 K, 2873.3 kPa	980.7 kg/m3
343.16 K, 2917.7 kPa	980.7 kg/m3
343.16 K, 3019.5 kPa	980.9 kg/m3
343.16 K, 3175.8 kPa	980.9 kg/m3
343.16 K, 3224.4 kPa	981.1 kg/m3
343.16 K, 3294.8 kPa	981.1 kg/m3
343.16 K, 3352.1 kPa	981.2 kg/m3
343.16 K, 3426.6 kPa	981.2 kg/m3
343.16 K, 3497.5 kPa	981.3 kg/m3
